Laboratory results: the RepoRT retention time repository

Assay: HILIC, Waters Atlantis Premier BEH Z-HILIC, 100 × 2.1 mm, 1.7 µm, 40 °C, 0.16 mL/min, estimated dead time 1.4 min; A: water + 20 mM ammonium carbonate + 5 µM medronic acid; B: 10% water + 90% acetonitrile + 2 mM ammonium carbonate + 0.5 µM medronic acid; gradient (min/%B) 0/97 18/55 18.1/20 21.5/20 22/97 23.5/97 25.5/97
Conditions: stereoisomer not certain

O=C(O)CCC(=O)C(=O)O [2-Oxoglutaric acid]
LC retention time: 9.15 min

O=C(O)CCC(O)C(=O)O (configuration not stated) [2-hydroxy glutaric acid]
LC retention time: 9.7 min

Nc1ncnc2c1ncn2C1OC(COP(=O)(O)OP(=O)(O)O)C(O)C1O (configuration not stated) [ADP]
LC retention time: 11.6 min

Nc1ncnc2c1ncn2C1OC(COP(=O)(O)O)C(O)C1O (configuration not stated) [AMP]
LC retention time: 9.68 min

Nc1ncnc2c1ncn2C1OC(COP(=O)(O)OP(=O)(O)OP(=O)(O)O)C(O)C1O (configuration not stated) [ATP]
LC retention time: 13.3 min

CC(=O)SCCNC(=O)CCNC(=O)C(O)C(C)(C)COP(=O)(O)OP(=O)(O)OCC1OC(n2cnc3c(N)ncnc32)C(O)C1OP(=O)(O)O (configuration not stated) [Acetyl-CoA]
LC retention time: 10.4 min

Nc1ncnc2c1ncn2C1OC(CO)C(O)C1O (configuration not stated) [Adenosine]
LC retention time: 4.45 min

NC(N)=NCCCC(N)C(=O)O (configuration not stated) [Arginine]
LC retention time: 19.2 min

O=C(O)CCCCC1SCC2NC(=O)NC21 (configuration not stated) [Biotin]
LC retention time: 4.62 min

C[N+](C)(C)CC(O)CC(=O)[O-] (configuration not stated) [Carnitine]
LC retention time: 10.1 min

O=C(O)CC(O)(CC(=O)O)C(=O)O [Citric acid]
LC retention time: 13.7 min

CC(C)(COP(=O)(O)OP(=O)(O)OCC1OC(n2cnc3c(N)ncnc32)C(O)C1OP(=O)(O)O)C(O)C(=O)NCCC(=O)NCCS (configuration not stated) [CoenzymeA]
LC retention time: 12 min

Cc1cc2nc3c(=O)[nH]c(=O)nc-3n(CC(O)C(O)C(O)COP(=O)(O)OP(=O)(O)OCC3OC(n4cnc5c(N)ncnc54)C(O)C3O)c2cc1C (configuration not stated) [FAD]
LC retention time: 7.63 min

O=C(CO)C(O)C(O)C(O)COP(=O)(O)O (configuration not stated) [Fructose 6-phosphate]
LC retention time: 11.5 min

O=P(O)(O)OCC1OC(O)(COP(=O)(O)O)C(O)C1O (configuration not stated) [Fructose-1,6-bisphosphate]
LC retention time: 15.5 min

Nc1nc2c(ncn2C2OC(COP(=O)(O)OP(=O)(O)OP(=O)(O)O)C(O)C2O)c(=O)[nH]1 (configuration not stated) [GTP]
LC retention time: 15.7 min

O=P(O)(O)OCC1OC(O)C(O)C(O)C1O (configuration not stated) [Glucose-6-phosphate]
LC retention time: 12.5 min

NC(CCC(=O)O)C(=O)O (configuration not stated) [Glutamic acid]
LC retention time: 9.93 min

NC(=O)CCC(N)C(=O)O (configuration not stated) [Glutamine]
LC retention time: 10.6 min

O=P(O)(O)OCC(O)CO (configuration not stated) [Glycerol-3-phosphate]
LC retention time: 10.6 min

OCC1OC(O)C(O)C(O)C1O (configuration not stated) [Hexose]
LC retention time: 7.87 min

O=C(O)CC(C(=O)O)C(O)C(=O)O (configuration not stated) [Isocitric acid]
LC retention time: 13.6 min

CCC(C)C(N)C(=O)O (configuration not stated) [Isoleucine]
LC retention time: 6.73 min

CC(O)C(=O)O (configuration not stated) [Lactic Acid]
LC retention time: 3.29 min

CC(C)CC(N)C(=O)O (configuration not stated) [Leucine]
LC retention time: 6.36 min

NCCCCC(N)C(=O)O (configuration not stated) [Lysine]
LC retention time: 19.4 min

NC(=O)C1=CN(C2OC(COP(=O)(O)OP(=O)(O)OCC3OC(n4cnc5c(N)ncnc54)C(O)C3O)C(O)C2O)C=CC1 (configuration not stated) [NADH]
LC retention time: 8.9 min

NC(=O)C1=CN(C2OC(COP(=O)(O)OP(=O)(O)OCC3OC(n4cnc5c(N)ncnc54)C(OP(=O)(O)O)C3O)C(O)C2O)C=CC1 (configuration not stated) [NADPH]
LC retention time: 13.8 min

NC(=O)c1ccc[n+](C2OC(COP(=O)(O)OP(=O)(O)OCC3OC(n4cnc5c(N)ncnc54)C(OP(=O)(O)O)C3O)C(O)C2O)c1 (configuration not stated) [NADP]
LC retention time: 13.3 min

NC(=O)c1ccc[n+](C2OC(COP(=O)(O)OP(=O)(O)OCC3OC(n4cnc5c(N)ncnc54)C(O)C3O)C(O)C2O)c1 (configuration not stated) [NAD]
LC retention time: 10.5 min

C=C(OP(=O)(O)O)C(=O)O [PEP]
LC retention time: 13.4 min

O=C(O)C(CO)OP(=O)(O)O (configuration not stated) [Phosphoglyceric acid A]
LC retention time: 12.6 min

O=C(O)CCC(=O)O [Succinic Acid]
LC retention time: 9.71 min

O=C(CO)COP(=O)(O)O [Triose phosphate]
LC retention time: 10.4 min

CC(=O)NC1C(OP(=O)(O)OP(=O)(O)OCC2OC(n3ccc(=O)[nH]c3=O)C(O)C2O)OC(CO)C(O)C1O (configuration not stated) [UDP-GlcNAc]
LC retention time: 10.1 min

CCC(=O)OC(CC(=O)[O-])C[N+](C)(C)C (configuration not stated) [carnitine-C3]
LC retention time: 6.89 min

O=C1CC(C(=O)O)NC(=O)N1 (configuration not stated) [dihydroorotic acid]
LC retention time: 4.6 min
